Data taken from EP4650362A1, “NEUROPROTECTIVE PSD-95 POLYPEPTIDE INHIBITOR AND USE THEREOF” (Beijing Tuo Jie Biopharmaceutical Co. Ltd., priority 2023, dated 2024).
“And” between values parts separate entries of the source, which are not always exact repeats. Equal entries are not always repeated. Where two headings read alike, the source gives them in different places. Non-standard residues stand in square brackets, D forms with d. Residues, ends and D or L forms follow the SMILES beside them. No end group written: not given here. Tle = CC(C)(C)[C@H](N)C(=O)O; Dab = NCC[C@H](N)C(=O)O; Aib = CC(C)(N)C(=O)O

Key:
[1] = target: T1, human PSD95-PDZ3 (Homo sapiens, UniProt P78352); test: binding ELISA with Biotin-PDZ3
T1 construct: PDZ3 (309-401, Flag-His-Avitag-TEVsite tag); made in house
T1 sequence (P78352 309-401): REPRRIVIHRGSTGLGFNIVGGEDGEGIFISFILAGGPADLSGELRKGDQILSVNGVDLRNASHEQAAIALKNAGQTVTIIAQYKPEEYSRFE
Text: The three PDZ domains in the PSD95 protein are structurally similar. Binding to the PDZ1 and PDZ2 domains can effectively block PSD95-mediated neuroexcitotoxicity. However, the biological function of binding to the PDZ3 domain is unclear. Therefore, to avoid potential safety concerns, this test example assessed the selectivity of polypeptide compounds for the PDZ2 and PDZ3 domains, aiming to identify polypeptide compounds that specifically bind to the PDZ2 domain. The expression and purification of PSD95-PDZ3 protein were carried out with reference to the steps in 3.1.2. The amino acid sequence of PDZ3 protein: […] Site-specifically biotinylated Biotin-PDZ2 and Biotin-PDZ3 proteins were used for binding ELISA assays. […] After the blocking was complete, the blocking solution was discarded, and the plate was washed three times with PBST buffer. […] After the incubation was complete, the reaction solutions in the microplate were discarded, and the plate was washed three times with PBST. 100 μL of HRP-SA secondary antibody (diluted at 1:2000) was added to each well, and the plate was incubated at 37 °C for 1 h. After the plate was washed three times with PBST, 100 μL of TMB chromogenic substrate was added. […] The absorbance at 450 nm was measured using a SpectraMax M5 microplate reader, and the binding EC50 values of the test compounds to Biotin-PDZ2 or Biotin-PDZ3 were calculated using GraphPad Prism 9. […] The abilities of polypeptide compounds to bind to human PSD95-PDZ2 and human PSD95-PDZ3

[2] = plasma stability test, human plasma; assay type: in vitro ADME; conditions: for Relative remaining compound content (%): 0min (standard 100%)
Method: (§1) Solution preparation: An appropriate amount of a test polypeptide compound was weighed out and dissolved in an appropriate amount of 1× PBS to form a 1 mM test solution. NA-1 and NoNO42 were used as positive drugs, propantheline bromide was used as a human plasma test control, and lovastatin was used as a rat plasma test control. Plasma stability test: 12.5 µL of the 1 mM test solution was added to a 495 µL pre-incubated plasma sample. […] For each incubation time, two parallel samples were set. Subsequently, 200 µL of stop solution was added to stop the incubation, and the mixtures were vortexed for 5 min. Then the mixtures were centrifuged at 10,000 rpm at 4 °C for 10 min to remove the protein in the sample, and 70 µL of the supernatant was transferred to a new 96-well plate (70 µL of water was added to each well beforehand) and well mixed. […] Sample pretreatment: […] LC-MS analysis: […] (2) Mass-spectrometric conditions: The mass spectrometry analysis used an electrospray ionization (ESI) source, a positive ion analysis mode, and a multi-reaction monitoring (MRM) scan mode. […] The plasma stability of the polypeptide compound

[3] = plasma stability test with alteplase added, human plasma; assay type: in vitro ADME; conditions: Human plasma + rt-PA (50 µg/mL alteplase), 25 µM
Method: as §1, with “mixed. Plasma stability test with alteplase added: An appropriate amount of solid alteplase was weighed out, and an appropriate volume of water was added. The mixture was vortexed to dissolve alteplase, forming a 1 mg/mL solution of alteplase. 250 µL of the 1 mg/mL solution of alteplase was added to 4750 µL of plasma to form a plasma sample containing 50 µg/mL alteplase. The other procedures were the same as in the aforementioned "plasma stability test", with the difference being that the plasma sample containing 50 µg/mL alteplase was used instead of plasma.” for “mixed.”

[4] = plasma stability test with alteplase added, rat plasma; assay type: in vitro ADME; conditions: Rat plasma + rt-PA (50 µg/mL alteplase), 25 µM
Method: as §1, with “mixed. Plasma stability test with alteplase added: An appropriate amount of solid alteplase was weighed out, and an appropriate volume of water was added. The mixture was vortexed to dissolve alteplase, forming a 1 mg/mL solution of alteplase. 250 µL of the 1 mg/mL solution of alteplase was added to 4750 µL of plasma to form a plasma sample containing 50 µg/mL alteplase. The other procedures were the same as in the aforementioned "plasma stability test", with the difference being that the plasma sample containing 50 µg/mL alteplase was used instead of plasma.” for “mixed.”

[5] = Human plasma, 25 µM, 10min, read-out: Relative remaining compound content (%)
[6] = Human plasma, 25 µM, 20min, read-out: Relative remaining compound content (%)
[7] = Human plasma, 25 µM, 30min, read-out: Relative remaining compound content (%)
[8] = Human plasma, 25 µM, 60min, read-out: Relative remaining compound content (%)
[9] = Human plasma, 25 µM, 120min, read-out: Relative remaining compound content (%)

## CC[C@H](C)[C@H](NC(=O)[C@H](CO)NC(=O)[C@H](CO)NC(=O)[C@H](CC(C)C)NC(=O)[C@@H](CCCCN)NC(=O)[C@H](CCCNC(=N)N)NC(=O)[C@H](CCCNC(=N)N)NC(=O)[C@@H](CCCNC(=N)N)NC(=O)[C@H](CCC(N)=O)NC(=O)[C@@H](CCCNC(=N)N)NC(=O)[C@H](CCCNC(=N)N)NC(=O)[C@H](CCCCN)NC(=O)[C@H](CCCCN)NC(=O)[C@@H](CCCNC(=N)N)NC(=O)CNC(=O)[C@@H](N)Cc1ccc(O)cc1)C(=O)N[C@@H](CCC(=O)O)C(=O)N[C@@H](CO)C(=O)N[C@@H](CC(=O)O)C(=O)N[C@H](C(=O)O)C(C)C [NoNO42, YGrKKRrQrRRkLSSIESDV, reference compound] (H-YG[dR]KKR[dR]Q[dR]RR[dK]LSSIESDV-OH)
[1]
  EC50: > 1000 µM
[2]; human, plasma
  remaining at 10 min, 25 µM: 104%
  remaining at 20 min, 25 µM: 104%
  remaining at 0.5 h, 25 µM: 107%
  remaining at 1 h, 25 µM: 99.3%
  remaining at 2 h, 25 µM: 107%

## CC(C)[C@H](NC(=O)[C@H](CC(=O)O)NC(=O)[C@@H](NC(=O)[C@@H](NC(=O)[C@@H](NC(=O)[C@@H](NC(=O)[C@H](CCN)NC(=O)C(C)(C)NC(=O)CNC(=O)[C@@H](CCCNC(=N)N)NC(=O)[C@@H](CCCNC(=N)N)NC(=O)[C@@H](CCCNC(=N)N)NC(=O)[C@@H](CCC(N)=O)NC(=O)[C@@H](CCCNC(=N)N)NC(=O)[C@@H](CCCNC(=N)N)NC(=O)[C@@H](CCCCN)NC(=O)[C@@H](CCCCN)NC(=O)[C@@H](CCCNC(=N)N)NC(=O)CNC(=O)[C@H](N)Cc1ccc(O)cc1)[C@@H](C)O)C(C)(C)C)C(C)(C)C)[C@@H](C)O)C(=O)O [Polypeptide compound 14, y-G-r-k-k-r-r-q-r-r-r-G-Aib-Dab-T-Tle-Tle-T-D-V] (H-[dY]G[dR][dK][dK][dR][dR][dQ][dR][dR][dR]G[Aib][Dab]T[Tle][Tle]TDV-OH)
[1]; plate coated with 2 µM test compound, Biotin-PDZ3 titrated, read-out: EC50 (PDZ3)
  EC50: > 1000 µM
[3]; 0min (standard 100%)
  Relative remaining compound content (%): 100.0%
[3]; 10min
  Relative remaining compound content (%): 98.6%
[3]; 20min
  Relative remaining compound content (%): 89.8%
[3]; 30min
  Relative remaining compound content (%): 85.8%
[3]; 60min
  Relative remaining compound content (%): 91.2%
[3]; 120min
  Relative remaining compound content (%): 92.3%
[2]; Human plasma, 25 µM
  Relative remaining compound content (%): 100.0%
[2]; [5]
  remaining at 10 min, 25 µM: 102%
[2]; [6]
  remaining at 20 min, 25 µM: 101%
[2]; [7]
  remaining at 0.5 h, 25 µM: 97.3%
[2]; [8]
  remaining at 1 h, 25 µM: 103%
[2]; [9]
  remaining at 2 h, 25 µM: 105%
[4]; 0min (standard 100%)
  Relative remaining compound content (%): 100.0%
[4]; 10min
  Relative remaining compound content (%): 95.6%
[4]; 20min
  Relative remaining compound content (%): 90.4%
[4]; 30min
  Relative remaining compound content (%): 104.9%
[4]; 60min
  Relative remaining compound content (%): 105.4%
[4]; 120min
  Relative remaining compound content (%): 96.7%

## CC(C)[C@H](NC(=O)[C@H](CC(=O)O)NC(=O)[C@@H](NC(=O)[C@@H](NC(=O)[C@@H](NC(=O)[C@@H](NC(=O)[C@H](CCN)NC(=O)C(C)(C)NC(=O)CNC(=O)[C@@H](CCCNC(=N)N)NC(=O)[C@H](CCCNC(=N)N)NC(=O)[C@H](CCCNC(=N)N)NC(=O)[C@H](CCC(N)=O)NC(=O)[C@@H](CCCNC(=N)N)NC(=O)[C@H](CCCNC(=N)N)NC(=O)[C@H](CCCCN)NC(=O)[C@H](CCCCN)NC(=O)[C@H](N)CCCNC(=N)N)[C@@H](C)O)C(C)(C)C)C(C)(C)C)[C@@H](C)O)C(=O)O [Polypeptide compound 22, r-K-K-R-r-Q-R-R-r-G-Aib-Dab-T-Tle-Tle-T-D-V] (H-[dR]KKR[dR]QRR[dR]G[Aib][Dab]T[Tle][Tle]TDV-OH)
[3]; 0min (standard 100%)
  Relative remaining compound content (%): 100.0%
[3]; 10min
  Relative remaining compound content (%): 97.9%
[3]; 20min
  Relative remaining compound content (%): 95.8%
[3]; 30min
  Relative remaining compound content (%): 102.8%
[3]; 60min
  Relative remaining compound content (%): 91.3%
[3]; 120min
  Relative remaining compound content (%): 95.6%
[2]; Human plasma, 25 µM
  Relative remaining compound content (%): 100.0%
[2]; [5]
  remaining at 10 min, 25 µM: 99.5%
[2]; [6]
  remaining at 20 min, 25 µM: 97%
[2]; [7]
  remaining at 0.5 h, 25 µM: 104%
[2]; [8]
  remaining at 1 h, 25 µM: 98%
[2]; [9]
  remaining at 2 h, 25 µM: 90.1%
[4]; 0min (standard 100%)
  Relative remaining compound content (%): 100.0%
[4]; 10min
  Relative remaining compound content (%): 83.4%
[4]; 20min
  Relative remaining compound content (%): 72.2%
[4]; 30min
  Relative remaining compound content (%): 48.2%
[4]; 60min
  Relative remaining compound content (%): 13.7%
[4]; 120min
  Relative remaining compound content (%): 8.1%

## YGRKKRRQRRRKLSSIESDV [NA-1, YGRKKRRQR RRKLSSIESDV, reference compound]
[1]
  EC50: > 1000 µM
[3]; 0min (standard 100%)
  Relative remaining compound content (%): 100.0%
[3]; 10min
  Relative remaining compound content (%): 23.9%
[3]; 20min
  Relative remaining compound content (%): 7.6%
[3]; 30min
  Relative remaining compound content (%): 3.4%
[3]; 60min
  Relative remaining compound content (%): 0.9%
[3]; 120min
  Relative remaining compound content (%): 0.3%
[2]; Human plasma, 25 µM
  Relative remaining compound content (%): 100.0%
[2]; [5]
  remaining at 10 min, 25 µM: 76.4%
[2]; [6]
  remaining at 20 min, 25 µM: 74.9%
[2]; [7]
  remaining at 0.5 h, 25 µM: 70.6%
[2]; [8]
  remaining at 1 h, 25 µM: 53.9%
[2]; [9]
  remaining at 2 h, 25 µM: 25.1%
[4]; 0min (standard 100%)
  Relative remaining compound content (%): 100.0%
[4]; 10min
  Relative remaining compound content (%): 6.3% and 14.0%
[4]; 20min
  Relative remaining compound content (%): 2.2%
[4]; 30min
  Relative remaining compound content (%): 0.8%
